In PMC5062570 (Nature Communications, 2016):
Several values for one entry are separate records, joined by “and”; a condition that tells them apart may be missing. Identical values can stand only once. Like-named read-outs stand apart in the source and are kept apart here.

Experiments:
BACE1 = BACE1 (Homo sapiens, UniProt P56817); test: BACE1 biochemical cellular assay (sAPPβ ELISA in H4 cells overexpressing APP695); assay type: cell-based; parameters: endogenous in cells; host or cells: H4 human neuroglioma cells overexpressing human APP695; settings: for BACE1 potency increase in live cells: BACE1 enzyme IC50 versus BACE1 cellular IC50; for IC50: sAPPβ ELISA, H4 neuroglioma cells with human wild-type APP
Chain of BACE1 (P56817 46-501): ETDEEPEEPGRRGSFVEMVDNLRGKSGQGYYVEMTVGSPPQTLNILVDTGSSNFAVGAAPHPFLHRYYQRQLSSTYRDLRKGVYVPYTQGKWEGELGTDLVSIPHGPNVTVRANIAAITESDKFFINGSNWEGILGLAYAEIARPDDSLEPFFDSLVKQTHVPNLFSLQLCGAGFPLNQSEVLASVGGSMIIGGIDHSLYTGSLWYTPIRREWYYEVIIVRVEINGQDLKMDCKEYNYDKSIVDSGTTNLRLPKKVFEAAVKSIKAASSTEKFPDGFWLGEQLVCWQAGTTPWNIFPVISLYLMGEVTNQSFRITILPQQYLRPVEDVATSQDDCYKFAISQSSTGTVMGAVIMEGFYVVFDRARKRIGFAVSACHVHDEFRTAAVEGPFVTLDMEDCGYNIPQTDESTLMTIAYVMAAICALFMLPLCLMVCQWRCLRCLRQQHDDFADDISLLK
Description: Cellular inhibition of BACE1 was determined by measuring sAPPβ, the primary cleavage product of BACE-1, in H4 human neuroglioma cells overexpressing the wild-type human APP695. […] The colorimetric reaction was read by an EnVision plate reader (PerkinElmer).

[1] = Plasma exposure (average unbound plasma concentration) in rats; assay type: in vivo, rat; settings: for Exposure: rat exploratory toxicology studies; for Avg Cp,u metabolite: active metabolite of the dosed compound
BACE2 = target: T1, BACE2 (Homo sapiens, UniProt Q9Y5Z0); test: BACE2 purified enzyme fluorescence polarization assay; assay type: biochemical; settings: purified human enzyme, fluorescence polarization
T1 construct: purchased R&D Systems 4097-AS
T1 sequence (Q9Y5Z0 63-518): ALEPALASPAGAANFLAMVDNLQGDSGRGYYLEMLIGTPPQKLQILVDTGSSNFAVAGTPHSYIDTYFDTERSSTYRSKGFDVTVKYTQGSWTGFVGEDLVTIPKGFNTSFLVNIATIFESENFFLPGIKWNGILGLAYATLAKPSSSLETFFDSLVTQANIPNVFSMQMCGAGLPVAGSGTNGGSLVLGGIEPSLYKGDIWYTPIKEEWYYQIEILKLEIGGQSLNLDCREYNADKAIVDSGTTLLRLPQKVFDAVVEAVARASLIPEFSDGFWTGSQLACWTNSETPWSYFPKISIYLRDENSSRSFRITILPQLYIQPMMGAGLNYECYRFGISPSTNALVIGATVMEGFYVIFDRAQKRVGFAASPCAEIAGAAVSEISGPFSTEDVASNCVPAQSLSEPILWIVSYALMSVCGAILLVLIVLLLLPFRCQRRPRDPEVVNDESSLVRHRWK
Description: (§1) Purified enzyme inhibition of BACE1, BACE2, CatD and CatE was determined using fluorescence polarization (FP) assays. Briefly, purified enzymes were treated with test compounds (1% DMSO, 37 °C) in the presence of synthetic peptide substrates (150 nM) in 30 μl total volume of NaOAc buffer (100 mM, pH 4.5, 0.0001% Tween-20) in a 384-well plate. After incubation, reactions were stopped and substrate captured by the addition of 1.5 μM streptavidin, and FP measured with an EnVision plate reader (PerkinElmer, excitation 485 nm, emission 530 nm). […] BACE2 activity was assessed with 0.5 nM recombinant BACE2 (R&D Systems 4097-AS) and the same synthetic substrate used for BACE1, with a 1 h incubation time. […] CatE activity was assessed with 1.0 nM recombinant CatE (Creative BioMart CTSE-255H) and the same synthetic substrate used for CatD, with a 1.5 h incubation time.

CatD [2] = target: T2, CatD (Homo sapiens, UniProt P07339); test: CatD purified enzyme fluorescence polarization assay; assay type: biochemical; parameters: final maturation into a non-covalently associated heavy chain and light chain; purchased Sigma C8696; host or cells: human liver; settings: purified human enzyme, fluorescence polarization, substrate-based
Description: as §1
Target sequence in this assay (P07339 65-162 limits assumed): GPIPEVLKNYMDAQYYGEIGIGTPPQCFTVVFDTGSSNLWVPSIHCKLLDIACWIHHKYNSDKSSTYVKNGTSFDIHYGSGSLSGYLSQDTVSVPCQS
Target sequence in this assay (P07339 169-412 limits assumed): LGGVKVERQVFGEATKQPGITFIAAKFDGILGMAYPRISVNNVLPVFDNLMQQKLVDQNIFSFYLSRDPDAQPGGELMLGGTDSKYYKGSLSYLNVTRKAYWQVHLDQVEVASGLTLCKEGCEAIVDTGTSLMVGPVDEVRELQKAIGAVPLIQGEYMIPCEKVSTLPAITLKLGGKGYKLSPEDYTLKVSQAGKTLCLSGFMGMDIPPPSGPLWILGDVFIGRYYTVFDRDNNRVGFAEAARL

CatD [3] = target: T2, CatD; test: CatD cellular assay (competition of PF-7802 photolabelling in live ARPE-19 cells); assay type: cell-based; parameters: host or cells: ARPE-19; settings: for CatD potency increase in live cells: CatD enzyme IC50 versus CatD cellular IC50; for IC50: live ARPE-19 cells, PF-7802 photoprobe 100 nM, 30 min
Target sequence in this assay (P07339 169-412 limits assumed): as above
Target sequence in this assay (P07339 65-162 limits assumed): as the sequence (P07339 65-162 limits assumed) above

Compound	BACE1 potency increase in live cells (BACE1) [x]	IC50 (BACE1) [nM]	Exposure [1]	Avg Cp,u metabolite ([1]; rat, 14 days, 15 mg kg-1 once daily) [nM]	concentration at 29 days ([1]; rat, 14 days, 15 mg kg-1 once daily, average unbound plasma concentration, read-out: Avg Cp,u parent) [nM]	Avg Cp,u metabolite ([1]; rat, 14 days, 40 mg kg-1 once daily) [nM]	concentration at 29 days ([1]; rat, 14 days, 40 mg kg-1 once daily, average unbound plasma concentration, read-out: Avg Cp,u parent) [nM]	Avg Cp,u metabolite ([1]; rat, 14 days, 90 mg kg-1 once daily) [nM]	concentration at 29 days ([1]; rat, 14 days, 90 mg kg-1 once daily, average unbound plasma concentration, read-out: Avg Cp,u parent) [nM]	Avg Cp,u metabolite ([1]; rat, 14 days, 200 mg kg-1 once daily) [nM]	concentration at 29 days ([1]; rat, 14 days, 200 mg kg-1 once daily, average unbound plasma concentration, read-out: Avg Cp,u parent) [nM]	IC50 (BACE2) [nM]	IC50 (CatD [2]) [nM]	CatD potency increase in live cells (CatD [3]) [x]	IC50 (CatD [3])	concentration at 14 days ([1]; Wistar Han, oral, rat, 14 days, 30 mg kg-1 once daily, average unbound plasma concentration, read-out: Avg Cp,u parent) [nM]	CatD potency difference between cell-free enzyme and cellular assays (CatD [3]) [fold]	BACE1 selectivity over CatD in cells (CatD [3]; cellular inhibition of BACE1 cleavage of APP versus inhibition of CatD labelling by PF-7802) [fold]
Cc1cc([C@H]2C[C@H]3[C@@H](CF)SC(N)=N[C@@]3(c3ccc(F)cc3F)CO2)on1 [PF-3195]	4.1	15	unexpectedly low exposures	460	5.4	2570	58	6350	232	17300	1790	150	9000	17	540 nM	–	–	–
Cc1cc([C@H]2C[C@H]3[C@@H](C)SC(N)=N[C@@]3(c3ccc(F)cc3F)CO2)on1 [PF-9283]	12	6	unexpectedly low exposures	–	–	–	–	–	–	–	–	140	12000	86	140 nM and < 300 nM	29	~86	23
